The text below walks through data of PubChem BioAssay (NCI).

Structures are written as SMILES.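 Growth conditions: 96-well plates. Treatment: test compound, 48 hours, 5 concentrations. Analysis: linear interpolation between bracketing concentrations; unreached endpoints set to highest concentration. GI50 = concentration required for 50% inhibition of growth. Definition used: TGI = concentration required for complete inhibition of growth.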

Among the test systems are CAKI-1 renal; COLO 205 colon; KM12 colon; M14 melanoma; SF-295 CNS; SNB-75 CNS; TK-10 renal; UACC-257 melanoma.
Common to all, as to assay: DTP human tumour cell line panel, 48 h

For orientation: TGI means the concentration at which net growth stops. Read a high TGI as lower sensitivity of the cells. As to `CC(=O)c1c2c(cc3c1CC1(C3)Cc3cc4c(c(C(C)=O)c3C1)CCC4)CCC2`, the TGI with CAKI-1 renal, with COLO 205 colon, in the experiment on KM12 colon, in the experiment with M14 melanoma, in the experiment on SF-295 CNS and in the experiment with SNB-75 CNS was above 100 µM throughout. In addition, the TGI in the experiment on TK-10 renal and in the experiment on UACC-257 melanoma was above 100 µM throughout.

Turning to `CN(C)CCNC(=O)c1cccc2cc3c(Cl)cccc3nc12`, the TGI is above 21.8 µM in the experiment with CAKI-1 renal; above 29.3 µM in the experiment with COLO 205 colon; 7.28 µM with KM12 colon; 8.37 µM with SNB-75 CNS; 7.66 µM in the experiment with TK-10 renal; 3.99 µM in the experiment with UACC-257 melanoma.

By GI50 is commonly meant the concentration that inhibits growth by half. With `O=C([CH-]C(=O)c1ccccc1)c1ccccc1.[CH-]1CCCCC1.[CH-]1CCCCC1.[CH-]1CCCCC1.[Sn+4]`, the GI50 in the experiment on CAKI-1 renal is 4.52 µM; in the experiment with COLO 205 colon, 4.15 µM; in the experiment on KM12 colon, 10.8 µM; with M14 melanoma, 8.3 µM; in the experiment with SF-295 CNS, 8.1 µM; in the experiment with SNB-75 CNS, 7.09 µM. For the same molecule, the GI50 with TK-10 renal was 12.1 µM; in the experiment on UACC-257 melanoma, 4.29 µM. In addition, the TGI was determined as 18.1 µM in the experiment on CAKI-1 renal; 16.2 µM with COLO 205 colon; 24.2 µM in the experiment on KM12 colon; 22.4 µM in the experiment with M14 melanoma; 22.1 µM in the experiment with SF-295 CNS; 21.3 µM in the experiment with SNB-75 CNS. Besides, the total growth inhibition concentration (TGI) came out at 26.1 µM in the experiment with TK-10 renal and 19.2 µM in the experiment on UACC-257 melanoma.

`CNC(=O)c1c(NC(=O)c2ccc(C(C)(C)C)cc2)sc2c(CN(C)C)c(O)ccc12`: the GI50 in the experiment on CAKI-1 renal is 1.68 µM; with COLO 205 colon, 2.1 µM; in the experiment with KM12 colon, 1.78 µM; in the experiment with M14 melanoma, 1.74 µM; with SF-295 CNS, 1.86 µM; in the experiment on TK-10 renal it was 1.94 µM. Also, the GI50 in the experiment on UACC-257 melanoma is 1.95 µM. For the same molecule, the concentration for total growth inhibition (TGI) in the experiment on CAKI-1 renal was found to be 3.25 µM; in the experiment on COLO 205 colon, 4.3 µM; in the experiment with KM12 colon it was 3.2 µM; in the experiment on M14 melanoma it was 3.54 µM; in the experiment on SF-295 CNS, 3.56 µM; in the experiment with TK-10 renal, 3.94 µM. This molecule also came in with a TGI with UACC-257 melanoma of 4.09 µM.

As for `O=C1C(c2ccc(Br)cc2)=[N+]([O-])c2ccccc21`, the TGI is 32.2 µM with COLO 205 colon; 30.4 µM in the experiment with KM12 colon; 29.8 µM in the experiment on M14 melanoma; 31.4 µM in the experiment on SNB-75 CNS; 29.7 µM in the experiment with TK-10 renal; 24.7 µM in the experiment with UACC-257 melanoma.

`N/C(=N\N=C\c1ccc(C(F)(F)F)cc1)NO`: the TGI in the experiment on CAKI-1 renal was 38.1 µM; with COLO 205 colon, 38.7 µM; with KM12 colon, above 100 µM; with M14 melanoma, 29.2 µM; in the experiment with SF-295 CNS it was above 100 µM; in the experiment on SNB-75 CNS it was above 100 µM. Besides, the TGI with TK-10 renal and in the experiment on UACC-257 melanoma was above 100 µM each time.

As for `CCOP(=O)(OCC)C1CCCOC1=O` (stereo not given), the concentration for total growth inhibition (TGI) in the experiment with CAKI-1 renal, in the experiment on COLO 205 colon, in the experiment with KM12 colon, with M14 melanoma, in the experiment on SF-295 CNS and with SNB-75 CNS was above 100 µM each time. The TGI in the experiment with TK-10 renal and in the experiment with UACC-257 melanoma was above 100 µM throughout.

With `COCN1COCN=C1NC#N`, the TGI in the experiment on CAKI-1 renal, in the experiment on COLO 205 colon, in the experiment on KM12 colon, in the experiment on M14 melanoma, in the experiment with SF-295 CNS and with SNB-75 CNS was above 100 µM in each case. Besides, the concentration for total growth inhibition (TGI) in the experiment on TK-10 renal and with UACC-257 melanoma was above 100 µM throughout.

`COC(=O)N/N=C(\C)c1c(O)cc(C)oc1=O`: the TGI with KM12 colon, in the experiment on M14 melanoma, in the experiment on SF-295 CNS, in the experiment with SNB-75 CNS, in the experiment with TK-10 renal and in the experiment on UACC-257 melanoma was above 100 µM throughout.

For the molecule `O=[N+]([O-])C=C(c1ccc(Cl)cc1)c1ccc(Cl)cc1`, the concentration for total growth inhibition (TGI) turned out to be 37.7 µM in the experiment on CAKI-1 renal; 12.2 µM with COLO 205 colon; 30.1 µM in the experiment on KM12 colon; 30.5 µM with M14 melanoma; 32.8 µM in the experiment on SF-295 CNS; 39.7 µM in the experiment on SNB-75 CNS. Moreover, the concentration for total growth inhibition (TGI) in the experiment on TK-10 renal turned out to be 33.5 µM; in the experiment on UACC-257 melanoma, 36.9 µM.

Turning to `CN(C)C(=N/O)/C(=N\O)N(C)C`, the TGI in the experiment on CAKI-1 renal, with KM12 colon, with M14 melanoma, in the experiment on SF-295 CNS, with SNB-75 CNS and in the experiment with TK-10 renal was above 100 µM each time. Further, the TGI in the experiment with UACC-257 melanoma is above 100 µM.

For `O=C(O)[C@H](NS(=O)(=O)c1ccc(F)cc1)c1ccccc1`, the TGI with CAKI-1 renal, with COLO 205 colon, in the experiment with M14 melanoma, with SF-295 CNS, in the experiment on SNB-75 CNS and in the experiment on TK-10 renal was above 100 µM each time. The concentration for total growth inhibition (TGI) in the experiment with UACC-257 melanoma was above 100 µM.

On to `c1ccc(C2OC3(CCC[C@H]4C[C@H]43)O[C@H]2c2ccccc2)cc1` (stereo not given in full), for which the TGI with CAKI-1 renal is 74.7 µM; with COLO 205 colon, 91.7 µM; in the experiment on KM12 colon it was above 100 µM; with M14 melanoma, above 100 µM; in the experiment with SF-295 CNS, above 100 µM; with SNB-75 CNS, 91.9 µM. Also, the values for the total growth inhibition concentration (TGI) in the experiment with TK-10 renal and with UACC-257 melanoma were above 100 µM and 77.7 µM, respectively.

In the case of `O=S(=O)(O)c1cc(O)c(N=Nc2ccc(O)cc2O)c2ccccc12`, the total growth inhibition concentration (TGI) in the experiment with CAKI-1 renal, in the experiment on COLO 205 colon, in the experiment with KM12 colon, in the experiment with M14 melanoma, in the experiment with SF-295 CNS and in the experiment with SNB-75 CNS was above 100 µM throughout. Moreover, the TGI with TK-10 renal and in the experiment on UACC-257 melanoma was above 100 µM throughout.

For the molecule `CC1=C(C(=O)Nc2ccccc2)C(c2cccc3ccccc23)C(C(=O)Nc2ccccc2)=C(C)N1`, the TGI in the experiment with CAKI-1 renal stood at 38.2 µM; in the experiment with COLO 205 colon, 26.6 µM; in the experiment on M14 melanoma, 32.5 µM; in the experiment with SF-295 CNS, 46.6 µM; in the experiment on SNB-75 CNS it was 47.7 µM; with TK-10 renal, 96.7 µM. The same molecule had a total growth inhibition concentration (TGI) in the experiment with UACC-257 melanoma of 39.2 µM.
